Reference: patent publication US20150056702A1, “METHOD AND KIT FOR CULTURING STEM CELLS” (China Medical University, priority 2013, published 2015)

Assays:
Type in all cases: cell-based, mouse
Stat3 = assay: Western blot assay, Stat3 protein in ES cells; conditions: for Stat3 Protein expression level: ES cells, control group = 100%
Text: According to the known research at present, Jak2 and Stat3 proteins could be phosphorylated to form the active forms, and the Jak2-Stat3 signaling pathway will be activated when Jak2 and Stat3 were phosphorylated.
An experimental group medium (BP5 or BP10), a LIF-containing medium (without BP), and a control group medium (without BP) were used respectively to culture ES cells with an initial density of 1×10^4 per well in a 6-well culture dish. The medium was removed until the cells growth to be about 70 to 80% confluence. The proteins were extracted to conduct the Western blot assay by using rabbit anti-Jak2 antibody (Cell Signaling Technology), mouse anti-phospho-Jak2 antibody (Cell Signaling Technology), rabbit anti-Stat3 antibody (BD) and rabbit anti-phospho-Stat3 antibody (Cell Signaling Technology), to determine whether BP would affect the protein expression levels of the genes in the Jak-Stat3 signaling pathway.

EPO = assay: Real-time PCR, cytokine gene EPO in ES cells; conditions: for EPO mRNA expression level: ES cells, control group = 100%
Description: An experimental group medium (BP5, BP10, BP20 or BP40) and a control group medium (without BP) were added respectively to perform the following steps. ES cells were cultured with an initial density of 1×10^4 per well in a 6-well culture dish. The medium was removed until the cells growth to be about 70 to 80% confluence, and then 1 ml TRIzol (Invitrogen) was added into each well. The cells were incubated for 5 minutes, and then was scraped by a spatula and placed into a 1.5 ml microtube to be lysed adequately. Chloroform (0.2 ml) was added into the microtubes. The mixture was shaken up and down for 15 seconds, and then incubated at room temperature for 2 to 3 minutes. Thereafter, the mixture was centrifuged at 12000 rpm at 4° C. for 15 minutes, and the supernatant was removed into another 1.5 ml microtube and isopropanol (0.5 ml) was added into the microtube with well mixing. The mixture was incubated at room temperature for 10 minutes and then centrifuged at 12000 rpm at 4° C. for 10 minutes. The supernatant was then removed. One ml of 70% ethanol containing DEPC.H2O was used to wash the remaining sediment. The sediment was centrifuged at 7500 rpm at 4° C. for 5 minutes. The supernatant was removed. The sediment was dried by vacuum suction. The dried samples were dissolved in about 0.01 to 0.02 ml of DEPC.H2O to obtain the experimental group RNA and control group RNA. Both groups were stored at −80° C.
The OD value of RNA samples in both groups obtained from the above Experiment I were measured at a wavelength of 260 nm (RNA: OD260=1 for a 40 μg/mL solution). Each RNA sample (2 μl) was added with RNA-free water until the volume of the sample reached 10 μl. Two μl oligo (dT) (100 μg/ml) was added into each sample, and the samples were incubated at 65° C. for 5 minutes. Then, the samples were immediately placed on ice and spun down. Next, 6.5 μl of a reaction solution [4 μl of 5× buffer+1 μl of 0.1 M DTT+1 μl of RNase out+0.5 μl of SSIII (Invitrogen)] was added into each of the samples, and the samples were incubated at 50° C. for about 30 to 60 minutes and at 75° C. for 15 minutes to obtain the experimental group cDNA and control group cDNA. Both groups were stored at −80° C.
This experiment was used to detect the expression levels of ES cell-related genes, i.e., Oct4 and Sox2, etc. First, 4 μl of the experimental group cDNA or control group cDNA was added into each well of a 96-well micro-reaction plate, and mixed with 6 μl of a reaction solution [0.5 μl of 6 μM forward primer+0.5 μl of 6 μM reverse primer+5 μl of SYBR Green PCR Master mix (Roche)], wherein the SYBR Green PCR Master mix included the reagents needed for Q-PCR, such as dNTPs, MgCl, Taq DNA polymerase and 2×SYBR® Green I solution. […] The cycle threshold (CT) values were measured. […]

iPS cells = assay: Alkaline phosphatase staining of iPS cells; conditions: 72 hours, control group = 100%
Description: The protocol shown in experiment A was repeated, while an iPS cell (received from Riken Research Center, Japan) was cultured at step (4).
The protocol shown in experiment C was repeated, while an iPS cell (received from Riken Research Center, Japan) was cultured at step (2).
Alkaline phosphatase is a marker protein of stem cells. The activity measured by staining could be used to determine if BP can effectively maintain the self-renewal and/or pluripotency of stem cells.
An experimental group medium (BP5, BP10, BP20 or BP40), a LIF-containing medium (without BP) and a control group medium (without BP) were used respectively to culture ES cells in a 6-well culture dish with an initial density of 1×10^4 per well for 72 hours. The medium was removed and the cells were washed two times with PBS. Next, PBS was removed, and 1 ml of 80% ethanol was added into each well to perform the fixation at 4° C. for 2 to 24 hours. Next, ethanol was removed, and then the cells were washed one time with distilled water. The distilled water was added again to soak the cells for 2 to 3 minutes, and then be removed. Next, the cells were soaked with a Tris-HCl buffer (100 mM, pH 8.2 to 8.5) at room temperature for 5 minutes, and then, the buffer was removed. Next, a Leukocyte Alkaline Phosphatase kit (Vector) was used to perform the staining for 20 to 30 minutes, and then the Alkaline Phosphatase Substrate working solution was removed, the cells were soaked and washed by Tris-HCl buffer (100 mM, pH 8.2 to 8.5) and then be observed by a fluorescent microscope to count the number of the AP-positive clones. The undifferentiated ES cells with a higher activity show a red color, while the differentiated ES cells with a lower activity show a weak red color or are even colorless.
By using the above culture conditions, an experimental group medium (BP5, BP10, BP20 or BP40), a LIF-containing medium (without BP), and a control group medium (without BP) were used respectively to culture iPS cells. Then, the staining of iPS cells was performed by the steps described above. The undifferentiated iPS cells with a higher activity show a red color and the differentiated iPS cells with a lower activity show a weak red color or are even colorless.

[1] = LIF-containing medium (LIF 4 ng/ml, without BP)
[2] = BP10 medium (about 10 μg BP/ml)

Compound	Stat3 Protein expression level (Stat3; [1]) [%]	EPO mRNA expression level (EPO; LIF-containing medium (LIF 4 ng/ml)) [%]	AP-positive clones (iPS cells; [1]) [%]	Stat3 Protein expression level (Stat3; BP5 medium (about 5 μg BP/ml)) [%]	Stat3 Protein expression level (Stat3; [2]) [%]	total protein expression and phosphorylated protein expression level of Stat3 (Stat3; ES cell medium containing BP, result in words)	EPO mRNA expression level (EPO; BP5 medium (about 5 μg BP/ml)) [%]	EPO mRNA expression level (EPO; [2]) [%]	mRNA expression level of EPO (EPO; BP-containing ES cell medium, result in words)	AP-positive clones (iPS cells; BP5 medium (about 5 μg BP/ml)) [%]	AP-positive clones (iPS cells; [2]) [%]	AP-positive clones (iPS cells; BP20 medium (about 20 μg BP/ml)) [%]	AP-positive clones (iPS cells; BP40 medium (about 40 μg BP/ml)) [%]
LIF: multifunctional cell factor used to maintain pluripotency of stem cells; LIF-containing medium (4 ng/ml, without BP) as comparison	140	91	226										
CCCC=C1OC(=O)c2ccccc21 [BP, n-butylidenephthalide]				139	165	increased significantly	97	196	significantly up-regulated	85	128	192	129
